Results published in ChEMBL document CHEMBL5614393, “Thioamides in medicinal chemistry and as small molecule therapeutic agents” (Eur J Med Chem, 2024).
Values after ≈ are worked out from the molar mass of the structure shown.

Experiments:
Pseudomonas aeruginosa = assay: Antibacterial activity against Pseudomonas aeruginosa ATCC 9027 assessed as reduction in bacterial cell growth incubated for 16 hrs by CLSI-based Mueller-Hinton broth dilution method; assay type: functional
Staphylococcus aureus = assay: Antibacterial activity against Staphylococcus aureus ATCC 6538 assessed as reduction in bacterial cell growth incubated for 16 hrs by CLSI-based Mueller-Hinton broth dilution method; assay type: functional
[1] = test system: Staphylococcus epidermidis; assay: Antibacterial activity against Staphylococcus epidermidis ATCC 12228 assessed as reduction in bacterial cell growth incubated for 16 hrs by CLSI-based Mueller-Hinton broth dilution method; assay type: functional
[2] = Inhibition of urease (unknown origin)
[3] = molecular target: T1, NAD-dependent protein deacetylase sirtuin-2 (Homo sapiens, UniProt Q8IXJ6); assay: Inhibition of C-terminal His-tagged SIRT2 (50 to 356 residues) (unknown origin) using Ac-Glu-Thr-Asp-Lys(Myr)-AMC as substrate by fluorescence based analysis
T1 sequence (Q8IXJ6 whole entry): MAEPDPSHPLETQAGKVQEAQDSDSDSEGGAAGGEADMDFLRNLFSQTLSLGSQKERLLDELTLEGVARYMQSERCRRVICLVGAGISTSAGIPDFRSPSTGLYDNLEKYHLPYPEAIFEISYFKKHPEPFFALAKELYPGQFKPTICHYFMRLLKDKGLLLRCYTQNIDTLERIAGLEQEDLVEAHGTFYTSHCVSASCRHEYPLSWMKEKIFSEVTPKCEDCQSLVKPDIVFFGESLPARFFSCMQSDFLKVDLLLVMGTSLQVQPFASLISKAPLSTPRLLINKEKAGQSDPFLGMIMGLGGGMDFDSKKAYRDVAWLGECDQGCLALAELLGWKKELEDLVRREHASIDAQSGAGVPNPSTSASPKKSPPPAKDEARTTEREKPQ

[4] = Half life in mouse; assay type: ADME, organism-based; conditions: in vivo
SiHa = assay: Antiproliferative activity against human SiHa cells overexpressing PHGDH assessed as reduction in cell growth; assay type: functional, cell-based
HL-60 = assay: Antiproliferative activity against human HL-60 cells overexpressing PHGDH assessed as reduction in cell growth; assay type: functional, cell-based
MDA-MB-231 [5] = assay: Antiproliferative activity against human MDA-MB-231 cells overexpressing PHGDH assessed as reduction in cell growth; assay type: functional, cell-based
Homo sapiens = organism: Homo sapiens; assay: Inhibition of NOS (unknown origin) at 15.6 uM relative to control
[6] = Antioxidant activity assessed as DPPH radical scavenging activity; assay type: functional
[7] = molecular target: NAD-dependent protein deacetylase sirtuin-3, mitochondrial (Homo sapiens, UniProt Q9NTG7); assay: Inhibition of SIRT3 (unknown origin)
[8] = molecular target: NAD-dependent protein deacylase sirtuin-5, mitochondrial (Homo sapiens, UniProt Q9NXA8); assay: Inhibition of SIRT5 (unknown origin)
HepG2 [9] = assay: Antiproliferative activity against human HepG2 cells; assay type: functional, cell-based
MCF7 [10] = assay: Antiproliferative activity against human MCF7 cells; assay type: functional, cell-based
MDA-MB-231 [11] = assay: Antiproliferative activity against human MDA-MB-231 cells; assay type: functional, cell-based
HCT-116 [12] = assay: Antiproliferative activity against human HCT-116 cells; assay type: functional, cell-based
MCF7 [13] = assay: Cytotoxicity against human MCF7 cells assessed as reduction in cell viability incubated for 48 hrs by MTT assay; assay type: functional, cell-based; conditions: MCF7, 48 h
[14] = AUClast in mouse at 40 mg/kg, ip; assay type: ADME, organism-based; conditions: in vivo
[15] = molecular target: NAD-dependent protein deacetylase sirtuin-1 (Homo sapiens, UniProt Q96EB6); assay: Inhibition of SIRT1 (unknown origin)
[16] = molecular target: T1, NAD-dependent protein deacetylase sirtuin-2; assay: Inhibition of SIRT2 (unknown origin)
HCT-116 [17] = assay: Cytotoxicity against human HCT-116 cells assessed as reduction in cell growth incubated for 24 hrs by MTT assay; assay type: functional, cell-based; conditions: HCT-116, 24 h
MCF7 [18] = assay: Cytotoxicity against human MCF7 cells assessed as reduction in cell growth incubated for 24 hrs by MTT assay; assay type: functional, cell-based; conditions: MCF7, 24 h
Carbonic anhydrase 1 = Carbonic anhydrase 1 (Homo sapiens, UniProt P00915); assay: Inhibition of human carbonic anhydrase I
Carbonic anhydrase 2 = Carbonic anhydrase 2 (Homo sapiens, UniProt P00918); assay: Inhibition of human carbonic anhydrase II
SARS-CoV-2 = assay: Antiviral activity against SARS-CoV-2 infected in African green monkey Vero E6 cells incubated for 48 hrs by plaque reduction assay; assay type: functional, organism-based; conditions: Severe acute respiratory syndrome coronavirus 2, Vero C1008, 48 h
[19] = molecular target: Epidermal growth factor receptor (Homo sapiens, UniProt P00533); assay: Inhibition of EGFR (unknown origin)
HCT-116 [20] = assay: Growth inhibition of human HCT-116 cells by SRB assay; assay type: functional
A549 = assay: Cytotoxicity against human A549 cells assessed as reduction in cell viability incubated for 24 hrs by MTT assay; assay type: functional, cell-based; conditions: A549, 24 h
HeLa = assay: Cytotoxicity against human HeLa cells assessed as reduction in cell viability incubated for 24 hrs by MTT assay; assay type: functional, cell-based
MCF7 [21] = assay: Cytotoxicity against human MCF7 cells assessed as reduction in cell growth by MTT colorimetric assay; assay type: functional, cell-based
HepG2 [22] = assay: Cytotoxicity against human HepG2 cells assessed as reduction in cell growth by MTT colorimetric assay; assay type: functional, cell-based
PC-3 = assay: Cytotoxicity against human PC-3 cells assessed as reduction in cell growth by MTT colorimetric assay; assay type: functional, cell-based

Carbonic anhydrase 1, sequence (P00915 whole entry): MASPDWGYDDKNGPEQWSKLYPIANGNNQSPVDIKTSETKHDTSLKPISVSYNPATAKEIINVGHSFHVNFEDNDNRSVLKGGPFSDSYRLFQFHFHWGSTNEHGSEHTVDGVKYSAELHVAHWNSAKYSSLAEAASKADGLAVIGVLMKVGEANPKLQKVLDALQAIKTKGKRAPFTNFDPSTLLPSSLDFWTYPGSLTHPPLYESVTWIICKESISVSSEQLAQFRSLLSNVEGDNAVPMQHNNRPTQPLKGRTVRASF
NAD-dependent protein deacetylase sirtuin-3, mitochondrial, sequence (Q9NTG7 whole entry): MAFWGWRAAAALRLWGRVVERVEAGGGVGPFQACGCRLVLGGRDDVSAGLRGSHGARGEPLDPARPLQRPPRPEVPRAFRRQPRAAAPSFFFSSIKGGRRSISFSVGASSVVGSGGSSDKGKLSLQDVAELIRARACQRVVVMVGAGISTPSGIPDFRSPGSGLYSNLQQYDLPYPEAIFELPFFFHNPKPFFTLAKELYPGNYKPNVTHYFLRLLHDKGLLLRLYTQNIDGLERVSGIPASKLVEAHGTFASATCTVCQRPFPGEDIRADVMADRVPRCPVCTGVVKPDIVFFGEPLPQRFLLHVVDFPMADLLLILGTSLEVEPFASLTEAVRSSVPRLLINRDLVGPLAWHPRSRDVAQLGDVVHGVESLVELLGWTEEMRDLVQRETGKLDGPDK
NAD-dependent protein deacylase sirtuin-5, mitochondrial, sequence (Q9NXA8 whole entry): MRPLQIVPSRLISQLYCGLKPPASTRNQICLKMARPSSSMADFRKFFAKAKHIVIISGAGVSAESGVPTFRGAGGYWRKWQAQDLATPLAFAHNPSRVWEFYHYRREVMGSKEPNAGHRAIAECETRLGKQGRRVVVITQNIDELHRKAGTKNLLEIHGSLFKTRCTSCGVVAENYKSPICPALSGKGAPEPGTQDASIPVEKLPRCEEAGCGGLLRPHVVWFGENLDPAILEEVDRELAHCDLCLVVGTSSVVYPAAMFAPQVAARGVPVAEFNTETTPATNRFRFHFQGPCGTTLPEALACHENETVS
NAD-dependent protein deacetylase sirtuin-1, sequence (Q96EB6 whole entry): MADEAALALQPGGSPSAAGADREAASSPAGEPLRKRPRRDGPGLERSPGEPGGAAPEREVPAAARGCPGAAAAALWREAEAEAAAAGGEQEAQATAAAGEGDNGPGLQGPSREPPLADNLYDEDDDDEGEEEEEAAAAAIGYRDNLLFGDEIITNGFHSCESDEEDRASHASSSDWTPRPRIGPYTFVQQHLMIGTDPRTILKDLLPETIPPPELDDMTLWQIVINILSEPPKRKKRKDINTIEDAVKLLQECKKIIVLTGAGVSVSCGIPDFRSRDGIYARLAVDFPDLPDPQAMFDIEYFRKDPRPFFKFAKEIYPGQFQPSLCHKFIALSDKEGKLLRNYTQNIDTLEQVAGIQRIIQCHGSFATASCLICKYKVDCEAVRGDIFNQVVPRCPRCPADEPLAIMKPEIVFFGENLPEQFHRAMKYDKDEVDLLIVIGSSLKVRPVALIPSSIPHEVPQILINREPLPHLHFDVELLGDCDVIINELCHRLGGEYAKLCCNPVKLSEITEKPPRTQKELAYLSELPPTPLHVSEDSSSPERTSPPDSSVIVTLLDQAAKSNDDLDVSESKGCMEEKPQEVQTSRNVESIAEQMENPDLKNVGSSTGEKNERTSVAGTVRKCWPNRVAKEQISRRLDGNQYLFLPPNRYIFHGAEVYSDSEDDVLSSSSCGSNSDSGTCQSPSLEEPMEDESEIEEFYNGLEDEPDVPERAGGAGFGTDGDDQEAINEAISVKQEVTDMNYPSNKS
Epidermal growth factor receptor, sequence (P00533 whole entry): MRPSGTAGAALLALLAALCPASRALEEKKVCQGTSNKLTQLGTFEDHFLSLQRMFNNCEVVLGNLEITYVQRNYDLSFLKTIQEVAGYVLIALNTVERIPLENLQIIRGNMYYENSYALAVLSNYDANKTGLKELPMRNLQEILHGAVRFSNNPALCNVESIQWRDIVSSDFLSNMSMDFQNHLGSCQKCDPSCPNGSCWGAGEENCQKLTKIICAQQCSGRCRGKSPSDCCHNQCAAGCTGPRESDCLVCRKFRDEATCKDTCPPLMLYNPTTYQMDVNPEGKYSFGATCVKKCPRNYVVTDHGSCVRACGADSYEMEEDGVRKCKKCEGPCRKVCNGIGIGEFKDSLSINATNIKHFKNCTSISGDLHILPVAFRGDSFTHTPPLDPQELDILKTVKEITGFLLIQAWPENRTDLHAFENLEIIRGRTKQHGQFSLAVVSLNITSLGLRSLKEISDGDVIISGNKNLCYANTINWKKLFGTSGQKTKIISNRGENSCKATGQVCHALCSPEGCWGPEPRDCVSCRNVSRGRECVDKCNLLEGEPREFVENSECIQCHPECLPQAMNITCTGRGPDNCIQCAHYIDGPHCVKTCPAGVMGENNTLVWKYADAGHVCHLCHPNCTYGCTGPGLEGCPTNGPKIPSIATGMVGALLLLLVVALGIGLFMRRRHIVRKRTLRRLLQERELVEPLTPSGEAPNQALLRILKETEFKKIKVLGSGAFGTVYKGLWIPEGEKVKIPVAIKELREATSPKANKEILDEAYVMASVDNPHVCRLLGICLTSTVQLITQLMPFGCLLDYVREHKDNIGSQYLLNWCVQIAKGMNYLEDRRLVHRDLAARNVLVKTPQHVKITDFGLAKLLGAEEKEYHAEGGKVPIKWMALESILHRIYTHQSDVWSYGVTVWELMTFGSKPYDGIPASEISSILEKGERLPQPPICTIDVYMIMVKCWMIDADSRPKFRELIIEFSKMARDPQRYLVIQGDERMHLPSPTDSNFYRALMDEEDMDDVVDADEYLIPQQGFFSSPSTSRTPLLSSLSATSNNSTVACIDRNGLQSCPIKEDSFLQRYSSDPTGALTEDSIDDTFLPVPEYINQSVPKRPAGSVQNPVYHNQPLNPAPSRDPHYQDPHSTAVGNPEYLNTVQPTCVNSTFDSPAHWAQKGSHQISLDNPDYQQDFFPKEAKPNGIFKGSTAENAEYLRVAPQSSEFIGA

Structure (SMILES): O=C(O)c1cn(C2CC2)c2cc(N3CCN(C(=S)c4cccc(F)c4)CC3)c(F)cc2c1=O
- MIC50 (Pseudomonas aeruginosa): < 3 ng/mL
- MIC50 (Staphylococcus aureus): < 3 ng/mL
- MIC50 [1]: < 3 ng/mL
- IC50 [2]: 4.08 µM

Structure (SMILES): CCCCCCCCCCCCNC(=S)NCCCC[C@H](NS(C)(=O)=O)C(=O)N[C@H](C)C(=O)NCCCCNC(=N)N
- IC50 [3]: 0.1 µM
- half-life [4]: < 2 h

Structure (SMILES): O=C(C(=S)N1CCOCC1)c1ccc(Cl)cc1
- IC50 (SiHa): 6.6 µM
- IC50 (HL-60): 15.5 µM
- IC50 (MDA-MB-231 [5]): > 100 µM

Structure (SMILES): O=[N+]([O-])c1ccc(N2CCN(C(=S)NCc3nc4ccccc4s3)CC2)cc1
- inhibition (Homo sapiens): 67%

Structure (SMILES): CN(C)c1ccc(C2CC(c3cccs3)=NN2C(N)=S)cc1 (configuration not stated)
- IC50 [6]: 632 ng/mL (≈ 1910 nM)

Structure (SMILES): CCCCCCCCCCCCCC(=S)NCCCCC(NC(=O)OCc1ccccc1)C(=O)Nc1ccccc1 (configuration not stated)
- IC50 [7]: > 200 µM
- IC50 [8]: > 200 µM

Structure (SMILES): COc1ccc(C2=NN(C(N)=S)C(c3ccc(Cl)cc3)C2)cc1 (configuration not stated)
- IC50 (HepG2 [9]): 6.08 µM
- IC50 (MCF7 [10]): 9.37 µM
- IC50 (MDA-MB-231 [11]): 8.5 µM
- IC50 (HCT-116 [12]): 5.89 µM

Structure (SMILES): COc1ccc(C2=NN(C(N)=S)C(/C=C/c3ccccc3)C2)cc1 (configuration not stated)
- IC50 (MCF7 [13]): 22.4 µM

Structure (SMILES): Cc1cc(C)nc(NC(=S)N2CCN(Cc3ccc(C(F)(F)F)cc3)CC2)c1
- IC50 (MDA-MB-231 [5]): 8 µM
- AUClast [14]: 147 µg·h/mL

Structure (SMILES): O=C(O)c1cn(C2CC2)c2cc(N3CCN(C(=S)c4ccc([N+](=O)[O-])cc4)CC3)c(F)cc2c1=O
- IC50 [2]: 2.05 µM

Structure (SMILES): NC(=O)N1N=C(c2ccc(Cl)cc2)CC1/C=C/c1ccccc1 (configuration not stated)
- IC50 (MCF7 [13]): 15.1 µM

Structure (SMILES): CCCCCCCCCCCCCC(=O)NCCCCC(NC(=O)OCc1ccccc1)C(=O)Nc1ccccc1 (configuration not stated)
- IC50 [15]: > 200 µM
- IC50 [16]: > 200 µM
- IC50 [7]: > 200 µM
- IC50 [8]: > 200 µM

Structure (SMILES): Cc1cc(C)c2c(n1)nn1c(C)c(C(=S)Nc3ccccc3)nnc21
- IC50 (HCT-116 [17]): 12.6 µM
- IC50 (MCF7 [18]): 11.7 µM

Structure (SMILES): COc1ccc(-c2cc(-c3ccc(N)cc3)nn2C(N)=S)cc1OC
- IC50 (Carbonic anhydrase 1): 0.00513 µM
- IC50 (Carbonic anhydrase 2): 0.0205 µM

Structure (SMILES): O=C(O)c1cn(C2CC2)c2cc(N3CCN(C(=S)c4cccc([N+](=O)[O-])c4)CC3)c(F)cc2c1=O
- IC50 [2]: 5.87 µM

Structure (SMILES): CC(C)(C)[C@H](NC(=O)C(F)(F)F)C(=O)N1C[C@H]2[C@@H]([C@H]1C(=O)N[C@H](C#N)C[C@H]1CCNC1=O)C2(C)C
- EC50 (SARS-CoV-2): 0.94 µM

Structure (SMILES): NC(=S)N1N=C(c2ccccc2)CC1/C=C/c1ccccc1 (configuration not stated)
- IC50 (MCF7 [13]): 4.53 µM
- IC50 [19]: 0.34 µM

Structure (SMILES): COc1ccc(F)c2[nH]c(C(=O)N[C@@H](CC(C)C)C(=O)N[C@@H](C[C@@H]3CCNC3=O)C(=O)c3nc4c(F)cccc4s3)cc12
- EC50 (SARS-CoV-2): 0.29 µM

Structure (SMILES): COc1cc(C2CC(c3ccccc3)=NN2C(N)=S)cc(OC)c1OC (configuration not stated)
- GI50 (HCT-116 [20]): 0.15 µM

Structure (SMILES): COc1ccc(F)c2[nH]c(C(=O)N[C@@H](CC(C)C)C(=S)N[C@@H](C[C@@H]3CCNC3=O)C(=O)c3nc4c(F)cccc4s3)cc12
- EC50 (SARS-CoV-2): 0.34 µM

Structure (SMILES): Cc1cccc(C)c1NC(=S)N1CCc2ccccc2C1
- IC50 [2]: 11.2 µM

Structure (SMILES): COc1ccc(NC(=S)N2CCc3ccccc3C2)cc1
- IC50 [2]: 11.2 µM

Structure (SMILES): FC(F)(F)c1ccc(NC(=S)N2CCc3ccccc3C2)cc1
- IC50 [2]: 11.2 µM

Structure (SMILES): NC(=O)N1N=C(c2ccccc2)CC1/C=C/c1ccccc1 (configuration not stated)
- IC50 (MCF7 [13]): 19.1 µM

Structure (SMILES): COc1cccc2[nH]c(C(=O)N[C@@H](CC(C)C)C(=O)N[C@@H](C[C@@H]3CCNC3=O)C(=O)c3nc4ccccc4s3)cc12
- EC50 (SARS-CoV-2): 0.29 µM

Structure (SMILES): NC(=S)N1N=C(c2ccc(Cl)cc2)CC1/C=C/c1ccccc1 (configuration not stated)
- IC50 (MCF7 [13]): 7.18 µM

Structure (SMILES): COc1ccc(C2=NN(C(N)=O)C(/C=C/c3ccccc3)C2)cc1 (configuration not stated)
- IC50 (MCF7 [13]): 37.7 µM

Structure (SMILES): CCCCCCCCCCCCCC(=S)NCCCC[C@H](NS(C)(=O)=O)C(=O)N[C@H](C)C(=O)NCCCCNC(=N)N
- IC50 [3]: 0.09 µM
- half-life [4]: > 2 h

Structure (SMILES): COc1cc(-c2cc(-c3ccc(N)cc3)nn2C(N)=S)cc(OC)c1OC
- IC50 (Carbonic anhydrase 1): 0.0122 µM

Structure (SMILES): CN(C)c1ccc(C2CC(c3ccc(Cl)cc3)=NN2C(N)=S)cc1 (configuration not stated)
- IC50 (A549): 13.5 µM
- IC50 (HeLa): 17.5 µM

Structure (SMILES): COc1ccc2ccc3c(c2c1)C(c1c(F)cccc1F)C(C(N)=S)=C(N)O3 (configuration not stated)
- IC50 (MCF7 [21]): 5.4 µM
- IC50 (HepG2 [22]): 4.5 µM
- IC50 (PC-3): 1.1 µM
